One data set is described as follows: Plasma protein binding. It is filed as in vitro ADME. The conditions noted are these: Mouse plasma protein binding; read-out: mPPB (converted). As to the method:
Plasma protein binding analysis was performed by Charles River Laboratories Inc. (ADME-SOP-90). Briefly, compounds in DMSO (10 µM, 0.5% DMSO final) were added to mouse plasma and dialysed against buffer for 4 hours at 37 °C. The compound concentration in each of the plasma and buffer compartments was determined by mass spectrometry and used to calculate the percentage compound bound. […]

Data set [1] in a line: Chromatographic LogD (HPLC method). It is filed as physicochemical. The conditions noted are these: pH 7.4, read-out: mchrom log D7.4. As to the method:
5-100% gradient of MeCN in 50mM NH4OAc in H 2O adjusted to pH 7.4. […]

The target in another data set is T1, PI5P4Kγ+ (Homo sapiens, UniProt Q8TBX8, D138G/D197E/E133P/E135D/E153T/E196G/G136S/G139A/N195G/S132L/S134N).
T1 construct: GST (N, cleaved yes); made in house; host or cells: E. coli BL21(DE3), pGEX6P
T1 sequence (Q8TBX8 with tags, fused parts or gaps INS131LPN/S132D/E133S/S134Q/E135A/G136R/D138G/G139A/E153T/N195G/E196G/D197E): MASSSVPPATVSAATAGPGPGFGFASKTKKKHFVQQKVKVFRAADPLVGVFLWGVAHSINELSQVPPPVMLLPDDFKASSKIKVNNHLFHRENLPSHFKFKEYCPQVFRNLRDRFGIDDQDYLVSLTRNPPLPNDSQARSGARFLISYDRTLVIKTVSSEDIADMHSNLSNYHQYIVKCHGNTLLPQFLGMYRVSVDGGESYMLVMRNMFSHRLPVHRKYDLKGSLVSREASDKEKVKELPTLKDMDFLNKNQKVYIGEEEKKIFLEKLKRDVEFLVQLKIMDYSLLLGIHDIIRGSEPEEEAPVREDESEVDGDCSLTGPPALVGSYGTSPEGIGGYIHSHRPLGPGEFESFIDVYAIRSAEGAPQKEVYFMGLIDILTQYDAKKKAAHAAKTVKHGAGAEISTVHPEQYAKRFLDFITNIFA
The data set can be described thus: ADP-Glo inhibition assay. The data set is classed as biochemical. As to conditions: for IC50: ADP-Glo; for PI5P4Kγ+ LE: ligand efficiency from PI5P4Kγ+ pIC50. On the technique in general: In ADP-Glo the light output rises with the ADP produced.

Another data set can be described thus: Kinetic solubility. The data set is classed as physicochemical. The conditions noted are these: PBS buffer, PBS pH 7.4. As to the method:
Kinetic solubility analysis was performed by Charles River Laboratories Inc. (ADME-SOP-01). Compound in
DMSO at 10 mM was diluted to 200 µM in both DMSO and buffer (0.1 M PBS, pH 7.4, 2% DMSO final), and
an aliquot of the 200 µM DMSO solution was diluted to 10 µM, and all dilutions were equilibrated for 2 hours. […]
Compound 9 was purchased from Am binter (Amb16536894) and was determined by UPLC to have purity >95%.
All other compounds were synthesised as described below , and all tested compounds have purity >95% by UPLC

In a further data set the target is T2, PI5P4Kβ-WT (Homo sapiens, UniProt P78356).
T2 sequence (P78356 1-416): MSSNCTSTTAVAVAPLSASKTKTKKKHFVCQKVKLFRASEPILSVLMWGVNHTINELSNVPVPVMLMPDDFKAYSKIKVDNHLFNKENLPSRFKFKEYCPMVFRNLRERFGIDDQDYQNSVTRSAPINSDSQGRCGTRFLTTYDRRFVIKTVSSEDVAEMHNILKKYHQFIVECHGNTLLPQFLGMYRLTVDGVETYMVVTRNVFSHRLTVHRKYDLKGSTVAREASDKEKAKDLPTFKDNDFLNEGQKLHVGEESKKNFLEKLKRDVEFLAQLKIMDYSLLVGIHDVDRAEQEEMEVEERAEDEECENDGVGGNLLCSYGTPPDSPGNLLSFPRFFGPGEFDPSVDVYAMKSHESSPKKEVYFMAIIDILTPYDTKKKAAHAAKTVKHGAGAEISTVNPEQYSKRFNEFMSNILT
The data set can be described thus: ADP-Glo inhibition assay. As to conditions: ADP-Glo.

A short description of data set [2]: Liver microsomal stability. The data set is classed as in vitro ADME. As to conditions: liver microsomes; Human liver microsomal hepatic stability; read-out: HLM t1/2. On the technique in general: Liver microsomes are vesicles of endoplasmic reticulum, rich in cytochrome P450 enzymes.
The next data set deals with JNK3 (Homo sapiens, UniProt P53779). The data set can be described thus: Kinase panel, radiometric 33P filter binding. As to conditions: read-out: % activity remaining.
Chain of JNK3 (P53779 whole entry): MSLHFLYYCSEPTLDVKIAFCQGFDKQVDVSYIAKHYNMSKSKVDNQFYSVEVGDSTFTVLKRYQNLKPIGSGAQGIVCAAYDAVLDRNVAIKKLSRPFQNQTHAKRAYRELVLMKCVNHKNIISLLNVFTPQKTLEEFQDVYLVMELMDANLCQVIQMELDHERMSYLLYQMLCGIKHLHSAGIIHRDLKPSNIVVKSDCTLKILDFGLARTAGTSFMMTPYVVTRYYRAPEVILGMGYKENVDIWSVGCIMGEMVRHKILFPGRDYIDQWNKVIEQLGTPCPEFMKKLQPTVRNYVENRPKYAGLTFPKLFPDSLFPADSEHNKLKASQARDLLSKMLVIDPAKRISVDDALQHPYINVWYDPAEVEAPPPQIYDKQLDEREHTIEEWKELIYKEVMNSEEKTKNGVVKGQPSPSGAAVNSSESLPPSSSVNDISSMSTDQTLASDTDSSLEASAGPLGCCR
The target in another data set is OSR1 (Homo sapiens, UniProt O95747). As to the kind of experiment: Kinase panel, radiometric 33P filter binding. The conditions noted are these: read-out: % activity remaining.
Chain of OSR1 (O95747 whole entry): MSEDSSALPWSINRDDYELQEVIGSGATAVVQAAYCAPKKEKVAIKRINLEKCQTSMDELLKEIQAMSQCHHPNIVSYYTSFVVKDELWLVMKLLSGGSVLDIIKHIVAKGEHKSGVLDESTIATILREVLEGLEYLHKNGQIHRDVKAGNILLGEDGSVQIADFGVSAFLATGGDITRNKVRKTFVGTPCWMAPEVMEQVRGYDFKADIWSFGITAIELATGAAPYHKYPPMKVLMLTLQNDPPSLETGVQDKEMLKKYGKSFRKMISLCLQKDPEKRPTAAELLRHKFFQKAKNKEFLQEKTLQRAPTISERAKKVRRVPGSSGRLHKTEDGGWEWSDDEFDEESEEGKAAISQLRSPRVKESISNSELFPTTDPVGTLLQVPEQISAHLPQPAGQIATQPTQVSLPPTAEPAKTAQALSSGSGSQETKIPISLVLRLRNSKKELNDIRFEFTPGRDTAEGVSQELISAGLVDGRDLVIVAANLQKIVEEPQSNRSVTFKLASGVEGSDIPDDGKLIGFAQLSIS
A further data set deals with p38b MAPK (Homo sapiens, UniProt Q15759). The data set can be described thus: Kinase panel, radiometric 33P filter binding. The conditions noted are these: read-out: % activity remaining.
For the next data set, the target named is TTBK1 (Homo sapiens, UniProt Q5TCY1). As to the kind of experiment: Kinase panel, radiometric 33P filter binding. The conditions noted are these: read-out: % activity remaining.
Chain of TTBK1 (Q5TCY1 whole entry): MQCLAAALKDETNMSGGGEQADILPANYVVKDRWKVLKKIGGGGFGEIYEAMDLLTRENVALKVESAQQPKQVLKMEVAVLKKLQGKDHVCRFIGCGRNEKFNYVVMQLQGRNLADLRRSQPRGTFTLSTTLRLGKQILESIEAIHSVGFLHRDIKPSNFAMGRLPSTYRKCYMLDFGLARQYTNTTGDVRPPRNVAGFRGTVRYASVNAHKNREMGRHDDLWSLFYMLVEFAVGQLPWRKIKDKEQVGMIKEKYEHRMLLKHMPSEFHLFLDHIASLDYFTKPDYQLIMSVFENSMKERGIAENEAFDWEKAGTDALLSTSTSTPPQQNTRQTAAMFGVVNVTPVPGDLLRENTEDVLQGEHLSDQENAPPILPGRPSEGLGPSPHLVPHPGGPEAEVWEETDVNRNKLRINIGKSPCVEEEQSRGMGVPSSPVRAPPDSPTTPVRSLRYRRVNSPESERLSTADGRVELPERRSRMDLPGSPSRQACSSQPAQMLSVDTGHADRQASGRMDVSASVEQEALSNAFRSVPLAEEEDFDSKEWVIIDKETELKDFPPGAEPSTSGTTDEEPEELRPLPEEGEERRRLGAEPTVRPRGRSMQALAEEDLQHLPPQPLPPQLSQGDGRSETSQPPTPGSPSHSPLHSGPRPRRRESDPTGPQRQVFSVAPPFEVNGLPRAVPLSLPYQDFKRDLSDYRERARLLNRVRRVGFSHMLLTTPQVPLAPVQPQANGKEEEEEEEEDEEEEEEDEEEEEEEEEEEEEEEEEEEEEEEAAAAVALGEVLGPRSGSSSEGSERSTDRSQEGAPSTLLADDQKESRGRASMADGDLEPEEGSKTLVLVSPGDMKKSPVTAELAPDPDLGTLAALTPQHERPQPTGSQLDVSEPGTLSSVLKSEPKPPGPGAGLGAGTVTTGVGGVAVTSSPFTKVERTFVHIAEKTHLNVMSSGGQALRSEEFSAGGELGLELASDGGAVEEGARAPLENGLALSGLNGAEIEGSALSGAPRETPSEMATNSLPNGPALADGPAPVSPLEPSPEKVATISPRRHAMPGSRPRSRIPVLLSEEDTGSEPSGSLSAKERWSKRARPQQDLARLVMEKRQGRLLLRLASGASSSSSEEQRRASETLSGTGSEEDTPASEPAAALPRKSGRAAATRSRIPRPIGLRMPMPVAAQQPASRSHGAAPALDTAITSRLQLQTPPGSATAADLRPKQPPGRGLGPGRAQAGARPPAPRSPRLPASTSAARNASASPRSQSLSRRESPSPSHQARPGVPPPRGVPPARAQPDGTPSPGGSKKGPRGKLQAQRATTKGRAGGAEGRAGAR
The target in the next data set is BRK (Homo sapiens, UniProt Q13882). As to the kind of experiment: Kinase panel, radiometric 33P filter binding. The conditions noted are these: read-out: % activity remaining.
Chain of BRK (Q13882 whole entry): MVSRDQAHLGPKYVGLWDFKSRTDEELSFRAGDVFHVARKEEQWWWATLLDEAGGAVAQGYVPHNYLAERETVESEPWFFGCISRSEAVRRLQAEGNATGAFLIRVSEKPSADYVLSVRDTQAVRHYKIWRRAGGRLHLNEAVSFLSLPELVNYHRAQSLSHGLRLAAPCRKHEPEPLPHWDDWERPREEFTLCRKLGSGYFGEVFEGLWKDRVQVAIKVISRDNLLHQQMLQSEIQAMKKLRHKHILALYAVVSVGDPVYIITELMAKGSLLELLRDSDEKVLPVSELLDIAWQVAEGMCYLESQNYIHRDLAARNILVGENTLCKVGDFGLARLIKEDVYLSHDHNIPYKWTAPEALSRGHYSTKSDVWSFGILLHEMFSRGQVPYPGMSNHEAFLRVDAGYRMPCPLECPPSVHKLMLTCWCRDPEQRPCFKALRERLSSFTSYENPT
The target of another data set is p38g MAPK (Homo sapiens, UniProt P53778). The data set can be described thus: Kinase panel, radiometric 33P filter binding. As to conditions: read-out: % activity remaining.
A further data set addresses PAK5 (Homo sapiens, UniProt Q9P286). As to the kind of experiment: Kinase panel, radiometric 33P filter binding. The conditions noted are these: read-out: % activity remaining.
In another data set the target is MLK1 (Homo sapiens, UniProt P80192). The data set can be described thus: Kinase panel, radiometric 33P filter binding. The conditions noted are these: read-out: % activity remaining.
Another data set deals with SIK3 (Homo sapiens, UniProt Q9Y2K2). As to the kind of experiment: Kinase panel, radiometric 33P filter binding. The conditions noted are these: read-out: % activity remaining.
Chain of SIK3 (Q9Y2K2 whole entry): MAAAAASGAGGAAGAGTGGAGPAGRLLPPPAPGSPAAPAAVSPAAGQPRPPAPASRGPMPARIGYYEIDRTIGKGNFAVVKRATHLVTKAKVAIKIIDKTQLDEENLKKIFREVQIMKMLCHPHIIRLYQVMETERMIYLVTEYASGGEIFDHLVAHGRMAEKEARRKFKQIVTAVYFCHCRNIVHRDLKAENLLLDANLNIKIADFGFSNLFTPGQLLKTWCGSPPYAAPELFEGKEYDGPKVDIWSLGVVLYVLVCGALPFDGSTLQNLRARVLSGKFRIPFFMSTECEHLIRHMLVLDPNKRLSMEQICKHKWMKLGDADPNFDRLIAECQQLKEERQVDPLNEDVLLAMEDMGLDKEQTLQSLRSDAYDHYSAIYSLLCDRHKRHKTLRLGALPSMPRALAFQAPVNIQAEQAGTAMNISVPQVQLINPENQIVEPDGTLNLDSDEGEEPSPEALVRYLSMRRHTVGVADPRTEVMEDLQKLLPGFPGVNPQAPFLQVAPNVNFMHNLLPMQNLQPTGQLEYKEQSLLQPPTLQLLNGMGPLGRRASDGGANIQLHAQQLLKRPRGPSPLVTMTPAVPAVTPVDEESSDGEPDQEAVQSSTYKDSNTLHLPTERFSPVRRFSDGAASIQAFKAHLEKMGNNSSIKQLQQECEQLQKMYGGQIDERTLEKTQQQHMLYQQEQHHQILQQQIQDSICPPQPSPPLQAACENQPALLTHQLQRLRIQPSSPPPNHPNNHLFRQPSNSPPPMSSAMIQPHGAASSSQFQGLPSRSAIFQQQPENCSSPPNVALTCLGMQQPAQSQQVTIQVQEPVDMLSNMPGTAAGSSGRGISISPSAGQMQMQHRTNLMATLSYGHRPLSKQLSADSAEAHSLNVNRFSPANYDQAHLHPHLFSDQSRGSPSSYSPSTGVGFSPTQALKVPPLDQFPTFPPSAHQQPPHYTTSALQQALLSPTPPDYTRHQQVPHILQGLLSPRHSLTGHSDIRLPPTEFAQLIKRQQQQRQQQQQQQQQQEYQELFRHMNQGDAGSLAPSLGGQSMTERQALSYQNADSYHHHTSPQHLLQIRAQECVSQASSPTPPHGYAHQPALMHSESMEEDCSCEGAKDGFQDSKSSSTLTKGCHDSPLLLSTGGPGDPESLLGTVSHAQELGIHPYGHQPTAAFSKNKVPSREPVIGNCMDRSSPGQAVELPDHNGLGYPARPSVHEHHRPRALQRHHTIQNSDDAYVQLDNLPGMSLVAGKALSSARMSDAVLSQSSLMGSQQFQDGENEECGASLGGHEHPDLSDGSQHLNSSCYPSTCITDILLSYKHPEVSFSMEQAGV
The target of the next data set is BRSK2 (Homo sapiens, UniProt Q8IWQ3). As to the kind of experiment: Kinase panel, radiometric 33P filter binding. As to conditions: read-out: % activity remaining.
The target of the next data set is MSK1 (Homo sapiens, UniProt O75582). The data set can be described thus: Kinase panel, radiometric 33P filter binding. As to conditions: read-out: % activity remaining.

Values after ≈ are worked out from the molar mass of the structure shown. Where two headings read alike, the source gives them in different places.

Chain of PAK5 (Q9P286 whole entry): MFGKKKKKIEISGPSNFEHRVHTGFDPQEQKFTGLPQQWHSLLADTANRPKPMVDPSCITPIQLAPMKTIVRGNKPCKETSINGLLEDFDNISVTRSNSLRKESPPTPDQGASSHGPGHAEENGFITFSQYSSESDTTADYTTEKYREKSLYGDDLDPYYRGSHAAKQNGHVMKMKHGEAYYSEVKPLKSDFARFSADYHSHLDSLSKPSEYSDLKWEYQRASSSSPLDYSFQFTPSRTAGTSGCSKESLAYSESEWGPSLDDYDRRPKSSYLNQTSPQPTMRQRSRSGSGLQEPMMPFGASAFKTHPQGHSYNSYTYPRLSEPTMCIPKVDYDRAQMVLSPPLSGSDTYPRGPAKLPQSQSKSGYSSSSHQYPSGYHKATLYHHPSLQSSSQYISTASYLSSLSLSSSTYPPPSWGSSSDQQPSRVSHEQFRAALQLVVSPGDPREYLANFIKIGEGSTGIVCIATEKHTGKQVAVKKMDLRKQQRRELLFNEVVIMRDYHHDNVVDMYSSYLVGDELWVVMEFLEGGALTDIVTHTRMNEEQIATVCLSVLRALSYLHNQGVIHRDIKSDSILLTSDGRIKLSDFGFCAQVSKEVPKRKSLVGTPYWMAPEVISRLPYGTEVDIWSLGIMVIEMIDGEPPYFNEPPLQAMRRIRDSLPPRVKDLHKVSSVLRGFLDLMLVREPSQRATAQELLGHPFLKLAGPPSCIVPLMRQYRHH
Excerpt for BRK: (§1) filter binding assay using 33P-g-ATPat the MRC PPU International Centre for Kinase Profiling, University of
Excerpt for BRSK2: as §1
Kinase % activity remaining s.d.
Excerpt for JNK3: as §1
Excerpt for MLK1: as §1
Excerpt for PI5P4Kβ-WT: To enable direct comparisons, Promega’s ADP-Glo reporter assay was developed using a mutant form of the kinase. […] To mitigate concerns about being misled by the use of the PI5P4Kγ+ construct and the possible introduction of PI5P4Kα activity into the molecules, our screening cascade included the measurement of ADP-Glo activity at PI5P4Kα-WT (and PI5P4Kβ-WT to fully understand emerging selectivity profiles).
Excerpt for SIK3: as §1
Kinase % activity remaining s.d.
Excerpt for TTBK1: as §1
Excerpt for p38b MAPK: as §1
Excerpt for p38g MAPK: as §1

As to `FC(F)(F)c1ccccc1-c1nc(NCc2cccs2)c2ccccc2n1` [Compound 1, NIH-12848, reference compound], in the data set “Plasma protein binding”, the fraction unbound at 4 h, 10 µM is < 0.01. Also, the chromatographic logD in data set [1] worked out at 6.3. The IC50 at PI5P4Kγ+ (new data, read-out: PI5P4Kγ+ IC50) was 790 nM; at PI5P4Kβ-WT (read-out: PI5P4Kβ IC50, new data), > 25000 nM. The “PI5P4Kγ+ LE” value on PI5P4Kγ+ worked out at 0.32. Besides, the solubility at 2 h in the data set “Kinetic solubility” is < 5 µM. Besides, the “PI5P4Kβ pIC50” value at PI5P4Kβ-WT is recorded as <4.6. In addition, the half-life at 1 µM in data set [2] was 21 min.
As for `CC(C)c1ccccc1-c1nc(NCc2ccccn2)c2c(ccn2C)n1` [Compound 40], the fraction unbound at 4 h, 10 µM in the data set “Plasma protein binding” was 0.01. Besides, the remaining activity at 10 µM worked out at 97% at JNK3; 120% at OSR1; 94% on p38b MAPK; 117% at TTBK1; 112% on BRK; 105% on p38g MAPK. Also, the remaining activity at 10 µM on PAK5 worked out at 120%; on MLK1 it was 89%; at SIK3, 111%; on BRSK2, 83%; at MSK1, 95%. For the same compound, the chromatographic logD in [1] is 4.5. For the same compound, on PI5P4Kγ+ (mutant PI5P4Kγ+ construct, read-out: PI5P4Kγ+ pIC50 (converted)), the IC50 is 631 nM. Further, the “PI5P4Kγ+ LE” value at PI5P4Kγ+ amounted to 0.32. The concentration in solution in “Kinetic solubility” (solubility at 2 h) was 7 µM (≈ 2.5 µg/mL). Moreover, the “PI5P4Kβ pIC50” value on PI5P4Kβ-WT is <4.6. Also, the half-life at 1 µM in data set [2] turned out to be 47 min.

As usually defined, the solubility is the dissolved amount per volume that the medium holds. Usually remaining activity stands for the signal under treatment as a percentage of the control signal.
